According to DBAASP:
≈ marks a conversion by molar mass, not a printed value.

Legend:
Assay in all cases: ≥ marks a high value that may be exact or a test limit, other limits are often not marked, values filed in µg/mL are converted to µM
[1] = system: Staphylococcus epidermidis ATCC 12228
[2] = system: Staphylococcus aureus ATCC 25923
Escherichia coli K99 = system: Escherichia coli K99
[3] = system: Candida tropicalis CGMCC 2.1975
Escherichia coli 078 = system: Escherichia coli 078
Escherichia coli UB1005 = system: Escherichia coli UB1005
[4] = system: Staphylococcus aureus ATCC 43300
[5] = system: Salmonella enterica subsp. enterica serovar Typhimurium ATCC 14028
[6] = system: Salmonella enterica subsp. enterica serovar Pullorum ATCC 7913
Escherichia coli K88 = system: Escherichia coli K88
[7] = system: Pseudomonas aeruginosa ATCC 27853
[8] = system: Candida parapsilosis CGMCC 2.3989
[9] = system: Salmonella enterica subsp. enterica serovar Typhimurium C77-31
[10] = system: Salmonella typhimurium KCTC 1926
[11] = system: Escherichia coli CCARM 1238
[12] = system: Staphylococcus aureus CCARM 3518
[13] = system: Pseudomonas aeruginosa 4891
[14] = system: Pseudomonas aeruginosa 4007
[15] = system: Staphylococcus aureus CCARM 3090
[16] = system: Escherichia coli ATCC 25922
[17] = system: Bacillus subtilis KCTC 1998
[18] = system: Candida albicans KCTC 7270
[19] = system: Trichosporon beigelii KCTC 7707
[20] = system: Escherichia coli CCARM 1229
[21] = system: Listeria monocytogenes KCTC 3710
[22] = system: Staphylococcus aureus ATCC 29213
[23] = system: Enterococcus faecalis ATCC 29212
Staphylococcus aureus = system: Staphylococcus aureus
[24] = system: Salmonella enterica subsp. enterica serovar Pullorum C79-13
[25] = system: Salmonella enterica subsp. enterica serovar Choleraesuis CVCC 503
Streptococcus agalactiae = system: Streptococcus agalactiae
[26] = system: Escherichia coli ATCC 2592
[27] = system: Candida albicans ATCC 10231
[28] = system: Staphylococcus aureus ATCC 33591
[29] = system: Cryptococcus neoformans ATCC 32045
[30] = system: Pseudomonas aeruginosa ATCC 10145

| SMILES | MIC [1] | MIC [2] | MIC (Escherichia coli UB1005) | MIC [4] | MIC [5] | MIC [7] | MIC [9] | MIC [10] | MIC [11] | MIC [12] | MIC [13] | MIC [14] | MIC [15] | MIC [16] | MIC [17] | MIC [18] | MIC [19] | MIC [20] | MIC [21] | MIC [26] | further results |
| --- | --- | --- | --- | --- | --- | --- | --- | --- | --- | --- | --- | --- | --- | --- | --- | --- | --- | --- | --- | --- | --- |
| CC[C@H](C)[C@H](NC(=O)[C@H](CCCN=C(N)N)NC(=O)[C@H](C)NC(=O)[C@H](C)N)C(=O)N[C@H](C(=O)N[C@@H](CC(C)C)C(=O)N[C@@H](CCCN=C(N)N)C(=O)N[C@@H](Cc1c[nH]c2ccccc12)C(=O)N[C@@H](CCCN=C(N)N)C(=O)N[C@@H](Cc1ccccc1)C(=O)N[C@@H](CCCN=C(N)N)C(N)=O)[C@@H](C)CC [AARIILRWRFR] | 1 µM (≈ 1.46 µg/mL) | 2 µM (≈ 2.91 µg/mL) | 4 µM (≈ 5.83 µg/mL) | 1 µM (≈ 1.46 µg/mL) | 2 µM (≈ 2.91 µg/mL) | 4 µM (≈ 5.83 µg/mL) | 4 µM (≈ 5.83 µg/mL) |  |  |  |  |  |  |  |  |  |  |  |  |  | MIC (Escherichia coli K99): 2 µM (≈ 2.91 µg/mL); MIC [3]: 4 µM (≈ 5.83 µg/mL); MIC (Escherichia coli 078): 2 µM (≈ 2.91 µg/mL); MIC [6]: 2 µM (≈ 2.91 µg/mL); MIC (Escherichia coli K88): 2 µM (≈ 2.91 µg/mL); MIC [8]: 4 µM (≈ 5.83 µg/mL) |
| CC[C@H](C)[C@H](NC(=O)CNC(=O)[C@H](CCC(N)=O)NC(=O)[C@H](CO)NC(=O)[C@@H](NC(=O)[C@H](CCCCN)NC(=O)[C@H](CCCCN)NC(=O)[C@H](CC(C)C)NC(=O)[C@H](C)NC(=O)[C@H](CC(N)=O)NC(=O)[C@H](CC(C)C)NC(=O)[C@H](C)N)C(C)C)C(=O)N[C@@H](Cc1cnc[nH]1)C(=O)N[C@@H](CCC(=O)O)C(=O)N[C@@H](C)C(=O)N[C@H](C(=O)N[C@@H](CCCCN)C(=O)N[C@@H](CC(C)C)C(=O)N[C@H](C(=O)N[C@@H](C)C(=O)N[C@@H](CC(N)=O)C(=O)N[C@@H](Cc1cnc[nH]1)C(=O)N[C@H](C(=O)N[C@@H](CCC(N)=O)C(N)=O)C(C)C)[C@@H](C)CC)[C@@H](C)CC [ALNALKKVSQGIHEAIKLIANHVQ] |  | 16 µM (≈ 41.5 µg/mL) |  |  |  | 8 µM (≈ 20.8 µg/mL) |  | 8 µM (≈ 20.8 µg/mL) | 16 µM (≈ 41.5 µg/mL) | ≥ 32 µM | ≥ 32 µM | ≥ 32 µM | ≥ 32 µM | 8 µM (≈ 20.8 µg/mL) | 16 µM (≈ 41.5 µg/mL) | ≥ 32 µM | ≥ 32 µM | 16 µM (≈ 41.5 µg/mL) | 16 µM (≈ 41.5 µg/mL) |  |  |
| CC[C@H](C)[C@H](N)C(=O)N[C@@H](CS)C(=O)N[C@@H](CCCN=C(N)N)C(=O)N[C@@H](CCCCN)C(=O)N1CCC[C@H]1C(=O)N[C@H](C(=O)N[C@H](C(=O)N[C@@H](CS)C(=O)N[C@@H](CCCN=C(N)N)C(=O)N[C@@H](CCCCN)C(=O)N1CCC[C@H]1C(=O)N[C@H](C(N)=O)[C@@H](C)CC)[C@@H](C)CC)[C@@H](C)CC [ICRKPIICRKPI] | > 64 µM |  | ≥ 64 µM | > 64 µM | > 64 µM |  | ≥ 64 µM |  |  |  |  |  |  | 64 µM (≈ 92.1 µg/mL) |  |  |  |  |  |  | MIC [22]: > 64 µM; MIC [23]: > 64 µM; MIC (Staphylococcus aureus): > 64 µM; MIC [24]: ≥ 64 µM; MIC [25]: ≥ 64 µM; MIC (Streptococcus agalactiae): ≥ 64 µM |
| C[C@H](NC(=O)[C@H](Cc1ccccc1)NC(=O)[C@H](CCCCN)NC(=O)[C@H](CCCCN)NC(=O)[C@H](C)NC(=O)[C@H](Cc1ccccc1)NC(=O)[C@H](CCCCN)NC(=O)[C@H](CCCCN)NC(=O)[C@H](C)NC(=O)[C@H](Cc1ccccc1)NC(=O)[C@@H](N)CCCCN)C(=O)N[C@@H](CCCCN)C(=O)O [KFAKKFAKKFAK] |  |  |  |  |  |  |  |  |  |  |  |  |  |  |  |  |  |  |  | ≥ 173 µM | MIC [27]: 260 µM (≈ 374 µg/mL); MIC [28]: ≥ 347 µM; MIC [29]: ≥ 123 µM; MIC [30]: ≥ 347 µM |
| NCCCC[C@H](NC(=O)[C@H](Cc1ccccc1)NC(=O)[C@H](Cc1ccccc1)NC(=O)[C@H](CCCCN)NC(=O)[C@H](CCCCN)NC(=O)[C@H](Cc1ccccc1)NC(=O)[C@H](Cc1ccccc1)NC(=O)[C@H](CCCCN)NC(=O)[C@H](CCCCN)NC(=O)[C@H](Cc1ccccc1)NC(=O)[C@H](Cc1ccccc1)NC(=O)[C@H](CCCCN)NC(=O)[C@H](CCCCN)NC(=O)[C@H](Cc1ccccc1)NC(=O)[C@H](Cc1ccccc1)NC(=O)[C@H](CCCCN)NC(=O)[C@H](CCCCN)NC(=O)[C@H](Cc1ccccc1)NC(=O)[C@H](Cc1ccccc1)NC(=O)[C@H](CCCCN)NC(=O)[C@H](CCCCN)NC(=O)[C@H](Cc1ccccc1)NC(=O)[C@H](Cc1ccccc1)NC(=O)[C@H](CCCCN)NC(=O)[C@H](CCCCN)NC(=O)[C@H](Cc1ccccc1)NC(=O)[C@H](Cc1ccccc1)NC(=O)[C@@H](N)CCCCN)C(=O)O [KFFKKFFKKFFKKFFKKFFKKFFKKFFK] |  |  |  |  |  |  |  |  |  |  |  |  |  |  |  |  |  |  |  | ≥ 32.3 µM | MIC [27]: 91.3 µM (≈ 354 µg/mL); MIC [28]: ≥ 64.6 µM; MIC [29]: 22.7 µM (≈ 88 µg/mL); MIC [30]: ≥ 32.3 µM |
| CC[C@H](C)[C@H](NC(=O)[C@H](CC(C)C)NC(=O)[C@H](CCCCN)NC(=O)[C@@H](NC(=O)[C@H](C)NC(=O)[C@H](CCC(=O)O)NC(=O)[C@H](Cc1cnc[nH]1)NC(=O)[C@@H](NC(=O)CNC(=O)[C@H](CCC(N)=O)NC(=O)[C@H](Cc1ccccc1)NC(=O)[C@@H](NC(=O)[C@H](CCCCN)NC(=O)[C@H](CCCCN)NC(=O)[C@H](CC(C)C)NC(=O)[C@H](C)NC(=O)[C@H](CC(N)=O)NC(=O)[C@@H](N)CC(C)C)C(C)C)[C@@H](C)CC)[C@@H](C)CC)C(N)=O [LNALKKVFQGIHEAIKLI] |  | 8 µM (≈ 16.3 µg/mL) |  |  |  | 4 µM (≈ 8.14 µg/mL) |  | 4 µM (≈ 8.14 µg/mL) | 4 µM (≈ 8.14 µg/mL) | 8 µM (≈ 16.3 µg/mL) | 8 µM (≈ 16.3 µg/mL) | 4 µM (≈ 8.14 µg/mL) | 8 µM (≈ 16.3 µg/mL) | 4 µM (≈ 8.14 µg/mL) | 8 µM (≈ 16.3 µg/mL) | 16 µM (≈ 32.6 µg/mL) | 16 µM (≈ 32.6 µg/mL) | 4 µM (≈ 8.14 µg/mL) | 8 µM (≈ 16.3 µg/mL) |  |  |
